Experimental data: patent US20250255845A1, “USE OF INTERLEUKIN (IL)-17A INHIBITOR IN PREPARATION OF MEDICAMENT FOR TREATING INFLAMMATORY DISEASE” (Xiangnan University, priority 2024, published 2025)

How the values were obtained:
TNF-α = assay: ELISA of LPS-induced TNF-α secretion in RAW264.7 cells; format: cell-based, mouse
Procedure: (§1) RAW264.7 cell culture: mouse mononuclear macrophages (RAW264.7, ATCC) are cultured in a complete medium containing 10% fetal bovine serum (FBS), 1% double antibodies (penicillin and streptomycin), and 89% DMEM at 37° C. and 5% CO2. In this experiment, RAW264.7 cells from passages 3 to 8 are used for related test.
(§2) LPS (100 ng/ml) is added for stimulation, with or without Tan, and the cell supernatant is collected to detect the contents of NO, IL-23, IL-17A, TNF-α, and IL-6 in the cell supernatant. The cell lysate is collected and the protein expressions (STAT3, p-STAT3 (Ser727), and p-STAT3 (Tyr705)) are detected by Western blot. Total cell RNA is extracted and real-time fluorescence quantitative polymerase chain reaction (PCR) is conducted to detect the expression levels of IL-23, IL-17A, TNF-α, and IL-6 mRNA.
(§3) RAW264.7 cells in the logarithmic growth phase were inoculated into a 6-well plate and the cell density was adjusted to 5.0×10^5 cells/well. After culturing for 24 h, the cells were stably adhered to the plate. The original medium was removed and different concentrations (5, 10, 20, 40 μM) of Tan were added to allow pretreatment for 1 h. […] The OD450 nm value of the cell supernatant was detected according to the instructions of the TNF-α and IL-6 ELISA kits, and the content of pro-inflammatory factors (TNF-α and IL-6) in the cell supernatant was calculated.

[1] = tested on: IMQ-induced psoriasis mice; assay: Dorsal skin lesions of IMQ-induced psoriasis mice; format: in vivo, Balb/c mice
Procedure: Balb/c mice (female, 6-8 weeks, 20+2 g), with certificate number [SCXK (Xiang) 2021-0002], were purchased from Hunan SJA Laboratory Animal (Changsha, China). All mice were housed in an specific pathogen free (SPF)-grade animal room with a 12 h light/12 h dark cycle, and experiments were started after the mice were acclimated for one week. Next, 96 mice were randomly divided into 12 groups (8 mice/group), including Control group, Control solvent (white vaseline) group, IMQ group, IMQ solvent (white vaseline) group, preventive administration of positive medicament Clo group (IMQ+Clo 55 mg), therapeutic administration of positive medicament group (IMQ+Clo (A) 55 mg), preventive administration of Tan low-dose group (IMQ+Tan 40 μg/cm^2), medium-dose group (IMQ+Tan160 μg/cm^2), and high-dose group (IMQ+Tan 640 μg/cm^2), and therapeutic administration of Tan low-dose group (IMQ+Tan (A) 40 μg/cm^2), medium-dose group (IMQ+Tan (A) 160 μg/cm^2), and high-dose group (IMQ+Tan (A) 640 μg/cm^2). After the mice were anesthetized, a 2 cm×3 cm area on the back was selected for hair removal. Modeling began 48 h after hair removal, and all modeling mice were applied with 65 mg (55 mg on the back and 5 mg on each ear) of IMQ cream every morning for 10 d. In the Tan preventive administration groups, the low-dose group (40 μg/cm^2), the medium-dose group (160 μg/cm^2), and the high-dose group (640 μg/cm^2) were topically administered to the back and ears every afternoon starting from the first day of modeling for 10 d. In the Tan therapeutic administration groups, the low-dose group (40 μg/cm^2), the medium-dose group (160 μg/cm^2), and the high-dose group (640 μg/cm^2) were topically administered to the back and ears every afternoon starting from the 3rd day of modeling for 10 d. The mice in the preventive positive medicament group received Clo (55 mg/mouse, 45 mg on the back, 5 mg on each ear) treatment from the first day of modeling, and the mice in the therapeutic positive medicament group received Clo (55 mg/mouse, 45 mg on the back, 5 mg on each ear) treatment from the third day of modeling.

IL-6 = assay: ELISA of LPS-induced IL-6 secretion in RAW264.7 cells; format: cell-based, mouse
Procedure: as §1, §2, §3

[2] = tested on: IMQ-induced psoriasis mice; assay: H&E histological evaluation of dorsal skin of IMQ-induced psoriasis mice; format: in vivo, Balb/c mice; conditions: dose-dependent
Procedure: (§4) Balb/c mice (female, 6-8 weeks, 20+2 g), with certificate number [SCXK (Xiang) 2021-0002], were purchased from Hunan SJA Laboratory Animal (Changsha, China). All mice were housed in an specific pathogen free (SPF)-grade animal room with a 12 h light/12 h dark cycle, and experiments were started after the mice were acclimated for one week. Next, 96 mice were randomly divided into 12 groups (8 mice/group), including Control group, Control solvent (white vaseline) group, IMQ group, IMQ solvent (white vaseline) group, preventive administration of positive medicament Clo group (IMQ+Clo 55 mg), therapeutic administration of positive medicament group (IMQ+Clo (A) 55 mg), preventive administration of Tan low-dose group (IMQ+Tan 40 μg/cm^2), medium-dose group (IMQ+Tan160 μg/cm^2), and high-dose group (IMQ+Tan 640 μg/cm^2), and therapeutic administration of Tan low-dose group (IMQ+Tan (A) 40 μg/cm^2), medium-dose group (IMQ+Tan (A) 160 μg/cm^2), and high-dose group (IMQ+Tan (A) 640 μg/cm^2). After the mice were anesthetized, a 2 cm×3 cm area on the back was selected for hair removal. Modeling began 48 h after hair removal, and all modeling mice were applied with 65 mg (55 mg on the back and 5 mg on each ear) of IMQ cream every morning for 10 d. […]

endothelial cells = conditions: CN101947215A; cited from earlier work
IL-23 mRNA = assay: Real-time fluorescence quantitative PCR, LPS-induced IL-23 mRNA in RAW264.7 cells; format: cell-based, mouse
Procedure: as §1, §2
RAW264.7 cells were inoculated into 6-well plate and the cell density was adjusted to 5.0×10^6 cells/well. […] The fluorescence intensity of each sample was detected according to the instructions of the real-time fluorescence quantitative PCR kit and specific primers (Table 1) (cycle conditions: enzyme activation 95° C. for 3 min, 1 cycle; denaturation 95° C. for 15 s, annealing/extension 60° C. for 1 min, 40 cycles). The mRNA expression level of each group was normalized with the GAPDH expression level, and the relative expression of mRNA was calculated using the 2^−ΔΔCt method.

p-STAT3 = assay: Immunohistochemistry of p-STAT3 in dorsal skin of IMQ-induced psoriasis mice; format: in vivo, Balb/c mice; conditions: preventive and therapeutic administration groups; dose-dependent
Procedure: as §4

[3] = 5-40 μM, 24 h, vs LPS group, P<0.001, dose-dependent

## COc1ccc(-c2cc(=O)c3c(OC)c(OC)c(OC)c(OC)c3o2)cc1 [Tan, tangeretin]
TNF-α; 40 μM
  inhibitory effect on TNF-α secretion compared with positive control Clo: comparable to that of the positive control
TNF-α; [3]
  TNF-α level in the cell supernatant: significantly decreased
[1]; high-dose (640 μg/cm^2) preventive and therapeutic groups
  improvement of dorsal skin lesions compared with positive control Clo: comparable to that of the positive control Clo
[1]; preventive and therapeutic topical administration, 40/160/640 μg/cm^2, vs IMQ group, dose-dependent
  erythema and scaling of dorsal skin: significant reduction in erythema and scaling
[1]; preventive group (from first day of modeling)
  scales and erythema on the dorsal skin: almost disappeared
[1]; therapeutic group (from 3rd day of modeling)
  back scales after treatment: only a minimal amount of back scales remained
IL-6; 40 μM
  inhibitory effect on IL-6 secretion compared with positive control Clo: comparable to that of the positive control
IL-6; [3]
  IL-6 level in the cell supernatant: significantly decreased
[2]; preventive Tan group vs IMQ group
  H&E histology of dorsal skin (epidermal thickness, hyperkeratosis, inflammatory infiltration): reduced epidermal tissue thickness, reduced hyperkeratosis, and slight inflammatory cellular infiltration
[2]; therapeutic Tan group, especially high-dose, vs IMQ group
  H&E histology of dorsal skin (epidermal thickness, hyperkeratosis, inflammatory infiltration): reduced epidermal tissue thickness, reduced hyperkeratosis, and slight inflammatory cellular infiltration
Endothelial cells
  proliferation of endothelial cells / angiogenesis: inhibit the proliferation of endothelial cells
IL-23 mRNA; 40 μM
  inhibitory effect on IL-23 mRNA compared with positive control Clo: comparable to that of the positive control Clo
IL-23 mRNA; 5-40 μM, 24 h, vs LPS, P<0.001, dose-dependent
  relative expression level of IL-23 mRNA: significantly decreased
p-STAT3
  expression level of p-STAT3 in the dorsal skin: significantly reduced
